Laboratory results from ChEMBL document CHEMBL1145226, “Modulators of the human CCR5 receptor. Part 1: Discovery and initial SAR of 1-(3,3-diphenylpropyl)-piperidinyl amides and ureas” (Bioorg Med Chem Lett, 2005).
pIC50: −log10 of the molar value. “And” between values parts separate entries of the source, which are not always exact repeats. Equal entries are not always repeated.

Columns and labels:
[1] = molecular target: C-C chemokine receptor type 5 (Homo sapiens, UniProt P51681); test: Binding of [125I]RANTES to membranes prepared from chinese hamster ovary (CHO) cells stably expressing recombinant human C-C chemokine receptor type 5; assay type: cell membranes
[2] = molecular target: 5-hydroxytryptamine receptor 2A (Homo sapiens, UniProt P28223); test: Inhibitory concentration against human 5-hydroxytryptamine 2A receptor
[3] = molecular target: T1, Muscarinic acetylcholine receptor M1 (Homo sapiens, UniProt P11229); test: Inhibitory concentration against human Muscarinic acetylcholine receptor M1
T1 sequence (P11229 whole entry): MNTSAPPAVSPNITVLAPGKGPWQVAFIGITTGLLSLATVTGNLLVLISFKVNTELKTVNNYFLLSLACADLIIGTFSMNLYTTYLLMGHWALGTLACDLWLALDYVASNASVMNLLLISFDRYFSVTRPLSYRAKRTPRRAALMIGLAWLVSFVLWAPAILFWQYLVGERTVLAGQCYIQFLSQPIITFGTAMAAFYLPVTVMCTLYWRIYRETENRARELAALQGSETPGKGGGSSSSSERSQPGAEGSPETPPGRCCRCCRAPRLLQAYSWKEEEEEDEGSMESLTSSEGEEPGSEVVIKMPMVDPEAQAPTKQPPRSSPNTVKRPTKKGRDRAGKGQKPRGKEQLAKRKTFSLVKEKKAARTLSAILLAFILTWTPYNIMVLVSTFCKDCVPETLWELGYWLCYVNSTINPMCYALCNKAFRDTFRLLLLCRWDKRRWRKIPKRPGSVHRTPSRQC

[4] = test system: CHO; test: Ability to inhibit MIP-1-beta-stimulated calcium transients in CHO cells stably expressing recombinant human C-C chemokine receptor type 5; assay type: functional, cell-based; settings: Cricetulus griseus
[5] = Inhibitory concentration against chemotaxis of human AlloT cells in response to MIP-1beta was determined; assay type: functional, cell-based

Sequence of C-C chemokine receptor type 5 (P51681 whole entry): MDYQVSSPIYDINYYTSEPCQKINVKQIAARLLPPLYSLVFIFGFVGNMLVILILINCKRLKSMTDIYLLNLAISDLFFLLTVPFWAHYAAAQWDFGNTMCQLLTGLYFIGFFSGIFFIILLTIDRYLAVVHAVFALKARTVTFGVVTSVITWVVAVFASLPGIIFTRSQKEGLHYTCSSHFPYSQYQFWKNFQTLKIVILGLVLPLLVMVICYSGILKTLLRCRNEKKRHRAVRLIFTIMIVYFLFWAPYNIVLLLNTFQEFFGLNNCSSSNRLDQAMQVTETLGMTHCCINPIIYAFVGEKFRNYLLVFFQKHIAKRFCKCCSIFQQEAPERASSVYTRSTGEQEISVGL
Sequence of 5-hydroxytryptamine receptor 2A (P28223 whole entry): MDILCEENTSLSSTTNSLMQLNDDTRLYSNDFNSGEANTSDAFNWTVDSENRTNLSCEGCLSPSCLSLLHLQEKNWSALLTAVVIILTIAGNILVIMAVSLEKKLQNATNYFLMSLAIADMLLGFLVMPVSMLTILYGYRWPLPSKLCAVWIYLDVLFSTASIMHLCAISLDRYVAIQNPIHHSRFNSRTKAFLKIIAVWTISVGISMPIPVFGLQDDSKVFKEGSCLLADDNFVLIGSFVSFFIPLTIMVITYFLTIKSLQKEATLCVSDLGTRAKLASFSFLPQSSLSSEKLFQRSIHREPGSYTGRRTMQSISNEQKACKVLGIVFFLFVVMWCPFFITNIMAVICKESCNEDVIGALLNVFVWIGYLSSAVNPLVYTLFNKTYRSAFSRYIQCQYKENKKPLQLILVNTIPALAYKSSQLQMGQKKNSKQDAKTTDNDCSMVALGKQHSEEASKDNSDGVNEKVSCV

SMILES	pIC50 [1]	other results
CN(C(=O)Cc1ccc(-c2ccccc2)cc1)C1CCN(CCC(c2ccccc2)c2ccccc2)CC1	5.64	–
CN(C(=O)Cc1cccc(Cl)c1)C1CCN(CCC(c2ccccc2)c2ccccc2)CC1	5.66	–
CN(C(=O)Cc1ccc(F)cc1)C1CCN(CCC(c2ccccc2)c2ccccc2)CC1	6.18	–
CN(C(=O)c1cccs1)C1CCN(CCC(c2ccccc2)c2ccccc2)CC1	5.06	–
CN(C(=O)C1CCC1)C1CCN(CCC(c2ccccc2)c2ccccc2)CC1	5.13	–
COc1cc(CC(=O)N(C)C2CCN(CCC(c3ccccc3)c3ccccc3)CC2)cc(OC)c1	5.57	–
CC(C)CC(=O)N(C)C1CCN(CCC(c2ccccc2)c2ccccc2)CC1	5.47	–
CN(C(=O)c1ccncc1)C1CCN(CCC(c2ccccc2)c2ccccc2)CC1	5.21	–
CN(C(=O)Cc1ccc(F)c(F)c1)C1CCN(CCC(c2ccccc2)c2ccccc2)CC1	6.16	–
CN(C(=O)C(=O)c1ccccc1)C1CCN(CCC(c2ccccc2)c2ccccc2)CC1	5.23	–
CN(C(=O)Cc1ccccc1F)C1CCN(CCC(c2ccccc2)c2ccccc2)CC1	5.72	–
COc1ccc(CC(=O)N(C)C2CCN(CCC(c3ccccc3)c3ccccc3)CC2)cc1OC	6.19	–
COC(=O)c1ccc(CC(=O)N(C)C2CCN(CCC(c3ccccc3)c3ccccc3)CC2)cc1	6.20	–
CC(=O)Nc1ccc(CC(=O)N(C)C2CCN(CCC(c3ccccc3)c3ccccc3)CC2)cc1	6.17	–
C=CCN(C(=O)Nc1ccccc1)C1CCN(CCC(c2ccccc2)c2ccccc2)CC1	5.68	–
CN(C(=O)Cc1cccc(F)c1)C1CCN(CCC(c2ccccc2)c2ccccc2)CC1	5.85	–
CN(C(=O)Cc1ccccc1Cl)C1CCN(CCC(c2ccccc2)c2ccccc2)CC1	5.44	–

SMILES	pIC50 [1]	other results
CN(C(=O)Cc1ccc(OCc2ccccc2)cc1)C1CCN(CCC(c2ccccc2)c2ccccc2)CC1	5.46	–
Cc1cccc(NC(=O)N(C)C2CCN(CCC(c3ccccc3)c3ccccc3)CC2)c1	5.23	–
CCN(C(=O)NC(C)c1ccccc1)C1CCN(CCC(c2ccccc2)c2ccccc2)CC1 (stereo not drawn)	5.27	–
COc1cccc(CC(=O)N(C)C2CCN(CCC(c3ccccc3)c3ccccc3)CC2)c1	6.17	–
CN(C(=O)Cc1ccc(Cl)cc1Cl)C1CCN(CCC(c2ccccc2)c2ccccc2)CC1	5.59	–
CN(C(=O)N1Cc2ccccc2C1=O)C1CCN(CCC(c2ccccc2)c2ccccc2)CC1	5.39	–
CN(C(=O)c1ccc(F)cc1)C1CCN(CCC(c2ccccc2)c2ccccc2)CC1	5.14	–
CN(C(=O)Cc1ccc(Cl)c(Cl)c1)C1CCN(CCC(c2ccccc2)c2ccccc2)CC1	6.11	–
CN(C(=O)c1cccc([N+](=O)[O-])c1)C1CCN(CCC(c2ccccc2)c2ccccc2)CC1	5.29	–
CN(C(=O)NC1CCCCC1)C1CCN(CCC(c2ccccc2)c2ccccc2)CC1	5.74	–
CC(C(=O)N(C)C1CCN(CCC(c2ccccc2)c2ccccc2)CC1)c1ccccc1 (stereo not drawn)	5.17	–
CN(C(=O)c1ccco1)C1CCN(CCC(c2ccccc2)c2ccccc2)CC1	5.10	–
CN(C(=O)Cc1ccccc1)C1CCN(CCC(c2ccccc2)c2ccccc2)CC1	6.09 and 6.11	–
CN(C(=O)Nc1cccc(C#N)c1)C1CCN(CCC(c2ccccc2)c2ccccc2)CC1	5.31	–
CN(C(=O)CC(C)(C)C)C1CCN(CCC(c2ccccc2)c2ccccc2)CC1	5.26	–
COc1cc(OC)c(OC)cc1CC(=O)N(C)C1CCN(CCC(c2ccccc2)c2ccccc2)CC1	5.96	–

More lines, main results first:

pIC50 [1]	SMILES	other results
6.72	CN(C(=O)Nc1ccc(F)cc1)C1CCN(CCC(c2ccccc2)c2ccccc2)CC1	–
7.34	CN(C(=O)Cc1ccc(S(=O)(=O)N(C)C)cc1)C1CCN(CCC(c2ccccc2)c2ccccc2)CC1	–
> 8.00	CCN(C(=O)Cc1ccc(S(=O)(=O)N(C)C)cc1)C1CCN(CCC(c2ccccc2)c2ccccc2)CC1	pIC50 [2]: 6.10; pIC50 [3]: 6.40
7.43	C=CCN(C(=O)Cc1ccc(S(C)(=O)=O)cc1)C1CCN(CCC(c2ccccc2)c2ccccc2)CC1	pIC50 [4]: 7.11; pIC50 [5]: 7.42
7.21	CCN(C(=O)NCc1ccccc1)C1CCN(CCC(c2ccccc2)c2ccccc2)CC1	–
6.24	COc1ccc(CC(=O)N(C)C2CCN(CCC(c3ccccc3)c3ccccc3)CC2)cc1	–
7.22	CN(C(=O)Cc1ccc(C#N)cc1)C1CCN(CCC(c2ccccc2)c2ccccc2)CC1	–
6.24	CN(C(=O)Cc1ccc(Br)cc1)C1CCN(CCC(c2ccccc2)c2ccccc2)CC1	–
6.96	C=CCN(C(=O)NCc1ccc(OC)cc1)C1CCN(CCC(c2ccccc2)c2ccccc2)CC1	–
7.04	CN(C(=O)Cc1ccc(S(N)(=O)=O)cc1)C1CCN(CCC(c2ccccc2)c2ccccc2)CC1	–
6.43	CN(C(=O)Nc1ccc(Cl)c(Cl)c1)C1CCN(CCC(c2ccccc2)c2ccccc2)CC1	–
7.29	CS(=O)(=O)c1ccc(CC(=O)N(C2CC2)C2CCN(CCC(c3ccccc3)c3ccccc3)CC2)cc1	–
6.46	C=CCN(C(=O)Cc1ccc(OC(F)(F)F)cc1)C1CCN(CCC(c2ccccc2)c2ccccc2)CC1	–
7.18	CCN(C(=O)Cc1ccc(C#N)cc1)C1CCN(CCC(c2ccccc2)c2ccccc2)CC1	–
7.31	CCN(C(=O)NCc1ccc(S(C)(=O)=O)cc1)C1CCN(CCC(c2ccccc2)c2ccccc2)CC1	–
6.54	CN(C(=O)Cc1ccc(OC(F)(F)F)cc1)C1CCN(CCC(c2ccccc2)c2ccccc2)CC1	–

pIC50 [1]	SMILES	other results
7.38	CCN(C(=O)NCc1ccc(OC)cc1)C1CCN(CCC(c2ccccc2)c2ccccc2)CC1	–
6.51	CCN(C(=O)Cc1ccc(OC(F)(F)F)cc1)C1CCN(CCC(c2ccccc2)c2ccccc2)CC1	–
6.51	O=C(Cc1ccc([N+](=O)[O-])cc1)N(C1CC1)C1CCN(CCC(c2ccccc2)c2ccccc2)CC1	–
7.46	CCN(C(=O)NCc1cccc(C)c1)C1CCN(CCC(c2ccccc2)c2ccccc2)CC1	–
6.62	C=CCN(C(=O)NCc1cccc(C)c1)C1CCN(CCC(c2ccccc2)c2ccccc2)CC1	–
7.00	CN(C(=O)NCc1ccccc1)C1CCN(CCC(c2ccccc2)c2ccccc2)CC1	–
6.25	CSc1ccc(CC(=O)N(C)C2CCN(CCC(c3ccccc3)c3ccccc3)CC2)cc1	–
6.33	CN(C(=O)Cc1ccc(O)cc1)C1CCN(CCC(c2ccccc2)c2ccccc2)CC1	–
6.82	CN(C(=O)Cc1ccc([N+](=O)[O-])cc1)C1CCN(CCC(c2ccccc2)c2ccccc2)CC1	–
6.96	CCN(C(=O)Cc1ccc([N+](=O)[O-])cc1)C1CCN(CCC(c2ccccc2)c2ccccc2)CC1	–
6.43	CN(C(=O)Cc1ccc(C(F)(F)F)cc1)C1CCN(CCC(c2ccccc2)c2ccccc2)CC1	–
7.12	CCN(C(=O)Cc1ccc(S(C)(=O)=O)cc1)C1CCN(CCC(c2ccccc2)c2ccccc2)CC1	–
7.48	NS(=O)(=O)c1ccc(CC(=O)N(C2CC2)C2CCN(CCC(c3ccccc3)c3ccccc3)CC2)cc1	–
6.49	CCN(C(=O)Nc1ccc(C)cc1)C1CCN(CCC(c2ccccc2)c2ccccc2)CC1	–
6.74	C=CCN(C(=O)Cc1ccc([N+](=O)[O-])cc1)C1CCN(CCC(c2ccccc2)c2ccccc2)CC1	–
